The subject of data set [1] is antiviral response. To be noted: 20 mg/kg to 320 mg/kg s.c. or 0.4% by weight of the diet; cited from earlier work.
Data set [2] has as its system anti-lysozyme IgG. Description: Immunoenzymatic measurement of anti-lysozyme IgG in serum of mice immunized against lysozyme. Format: in vivo, C57BL/6 mice. To be noted: for Optical densities +/- SD, anti-lysozyme IgG, 1/180 serial dilution: serum 1/180; for Optical densities +/- SD, anti-lysozyme IgG, 1/180 serial dilution / Optical densities +/- SD, anti-lysozyme IgG, 1/540 serial dilution / Optical densities +/- SD, anti-lysozyme IgG, first serial dilution: s.c., mean of 5 mice; for Optical densities +/- SD, anti-lysozyme IgG, 1/180 serial dilution / Optical densities +/- SD, anti-lysozyme IgG, 1/540 serial dilution: doses and timing as E1; for Optical densities +/- SD, anti-lysozyme IgG, 1/540 serial dilution: serum 1/540; for Optical densities +/- SD, anti-lysozyme IgG, first serial dilution: serum dilution not given, PREG 0,5 g/kg, DHEA 1,0 g/kg, ADIOL 125 mg/kg 1 hour before lysozyme, 7-hydroxy-PREG and 7-hydroxy-DHEA 6,25 mg/kg, 7β-hydroxy-DHEA 50,0 mg/kg, 7- and 7β-hydroxy-ADIOL 25,0 mg/kg with lysozyme; for Effect on serum concentrations of anti-lysozyme IgG (in words): steroid administered s.c. at least one hour prior to the injection of lysozyme; for Effect on serum anti-lysozyme IgG (in words): steroid administered s.c. simultaneously with lysozyme. The method, then:
The immunity effector effect was tested by subcutaneous injection concomitantly with that of an antigen and the 7-alpha- or 7-beta-hydroxylated derivative into C57BL/6 mice according to a standard immunization protocol (Methods in Enzymology (1980), vol. 70).
The effect of the compound as cellular immunity effector is measured by the quantity of circulating IgG directed against the antigen 21 days after the injection and after a booster injection 14 days layer.
Thirty five groups of five 6-weeks old C57BL/6 mice are given a subcutaneous injection of 200 ug of hen egg white lysozyme on days one and fourteen of the immunization protocol. Solutions of DHEA (Sigma D-4500) in dimethyl sulfoxide (DMSO) are injected in the same manner at variable times before the first injection of lysozyme. Amounts ranging from 0.25 and 2 g/kg are used. Ten other groups of 5 mice are given a subcutaneous injection of 6.25 to 50 mg/kg of 7-alpha-hydroxy-DHEA or 7-beta-hydroxy-DHEA dissolved in DMSO at the same time as the first lysozyme injection. Two groups receive only DMSO with lysozyme (controls). The blanks correspond to one group of 5 mice and are not given an injection.
Three weeks after the first injections the animals, then aged 9 weeks, are decapitated. The blood of each animal is collected and the presence of anti-lysozyme G immunoglobulins (IgG) is measured in serial dilutions of the sera by an immunoenzymatic titration using goat anti-mouse (Fc) IgG immunoglobulin labelled with peroxidase.
A group of 5 mice is given the subcutaneous injection of 125 mg/kg of 5-androstene-3-beta, 17-beta-diol (ADIOL) one hour prior to the first injection of lysozyme, and two groups of 5 mice are treated with 25 mg/kg of 7-alpha-hydroxy-ADIOL or 7-beta-hydroxy-ADIOL at the time of the first lysozyme injection.
DHEA or PREG or ADIOL is injected subcutaneously 1 hour before the first lysozyme injection. The 7-hydroxylated derivatives are administered simultaneously with the lysozyme injection. The immunoenzymatic measurement of the anti-lysozyme IgGs in the serial dilutions of the sera of each animal makes use of goat anti-mouse (Fc) IgG immunoglobulin, labelled with peroxidase in 96-well plates treated with lysozyme. The mean value of the optical densities measured in each group of 5 mice is calculated as well as the standard deviation (SD).

In data set [3] the test system is AIDS. To be noted: 400 to 2500 mg/day; cited from earlier work.
The conditions of data set [4]: cited from earlier work.
For data set [5], the system named is human viruses Edwards CVB4 or HSV2. To be noted: s.c., of the order of 1 g/kg 4 hours prior to viral infection; also oral 0.4% in the diet for 16 weeks; cited from earlier work.
For data set [6], the system named is cytosolic or nuclear receptors specific for 7-alpha-hydroxy-DHEA. Description: Search for cytosolic or nuclear receptors specific for 7-alpha-hydroxy-DHEA (studies not reported). Format: binding. The following applies: studies not reported here.
For data set [7], the target named is T1, nuclear binding of tritiated dexamethazone (glucocorticoid receptors) (Mus musculus, UniProt P06537).
T1 construct: The liver, brain, spleen and thymus are excised and the cells of each organ are recovered; from tissue; host or cells: isolated cells of liver, brain, spleen and thymus of metyrapone-treated C57BL/6 mice
T1 sequence (P06537 1-792): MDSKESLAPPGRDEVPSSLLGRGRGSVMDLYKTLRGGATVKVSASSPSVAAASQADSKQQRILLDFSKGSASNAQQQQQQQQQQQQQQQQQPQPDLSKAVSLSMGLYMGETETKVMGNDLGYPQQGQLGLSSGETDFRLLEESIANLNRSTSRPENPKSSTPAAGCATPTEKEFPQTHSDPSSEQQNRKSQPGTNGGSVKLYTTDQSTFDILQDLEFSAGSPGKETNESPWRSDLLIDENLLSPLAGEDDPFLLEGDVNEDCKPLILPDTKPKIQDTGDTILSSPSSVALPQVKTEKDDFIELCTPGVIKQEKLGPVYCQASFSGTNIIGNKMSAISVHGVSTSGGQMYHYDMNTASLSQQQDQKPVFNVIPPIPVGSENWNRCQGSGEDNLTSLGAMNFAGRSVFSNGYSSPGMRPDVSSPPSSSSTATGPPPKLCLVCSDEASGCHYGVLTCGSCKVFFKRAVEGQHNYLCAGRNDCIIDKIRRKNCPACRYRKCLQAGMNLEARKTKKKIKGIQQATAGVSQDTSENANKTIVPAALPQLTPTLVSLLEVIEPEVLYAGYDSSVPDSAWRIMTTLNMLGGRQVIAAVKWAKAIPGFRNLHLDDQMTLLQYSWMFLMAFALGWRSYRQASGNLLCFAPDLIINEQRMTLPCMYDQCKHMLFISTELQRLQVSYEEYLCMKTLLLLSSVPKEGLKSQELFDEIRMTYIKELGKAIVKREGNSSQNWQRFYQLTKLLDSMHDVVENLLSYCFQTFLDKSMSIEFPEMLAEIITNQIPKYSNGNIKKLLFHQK
Description: Displacement of the nuclear binding of tritiated dexamethazone in isolated liver, brain, thymus and spleen cells. Details: species or system C57BL/6 mouse. The method, then: The isolated hepatocytes are incubated for 1 hour at room temperature with increasing concentrations (2-80 nM) of ^3 H-dexamethazone (DEX*). […] The hepatocyte nuclei are then isolated and purified and the radioactivity corresponding to the DEX* still bound is measured and expressed in cpm/10 ug of DNA. The area under the curve DEX* corresponds to zero displacement of the radioactivity. The area under the curve DEX*/DEX which corresponds to the displacement of radioactivity by the same molecule is taken arbitrarily as 100. The areas under the curve obtained with the other steroids makes it possible to calculate by interpolation between the areas zero and 100 their displacement coefficients for the nuclear binding of DEX*.
The mice are anesthetized with ether and bled, then perfused intracardially with physiological serum containing collagenase B (0.03 g/100 ml) for 10 minutes. […] The quantities of cells obtained are estimated on the base of the measurement of the DNA contained in the preparations.
The nuclei are recovered and their radioactive content measured as described by the authors cited above.
The area under the curve of tritiated dexamethazone alone is measured and taken as zero. […] The displacement coefficients found for each of the other steroids are calculated by interpolation on this scale, each result being the mean of a triplicate determination.

Turning to `C[C@]12CC[C@H]3[C@@H](CC=C4C[C@@H](O)CC[C@@]43C)[C@@H]1CC[C@@H]2O` [ADIOL, 5-androstene-3-beta, 17-beta-diol, reference compound], the Antiviral response entry in data set [1] was “enhanced antiviral response”. Besides, in data set [2], the “Optical densities +/- SD, anti-lysozyme IgG, 1/180 serial dilution” value is 0,37 ± 0,06; the “Optical densities +/- SD, anti-lysozyme IgG, 1/540 serial dilution” value was 0,22 ± 0,03; the “Optical densities +/- SD, anti-lysozyme IgG, first serial dilution” value is 0,26 ± 0,09; the “Effect on serum concentrations of anti-lysozyme IgG (in words)” value was “increase the serum concentrations of anti-lysozyme IgG”.
Consider `C[C@]12CC[C@H](O)CC1=CC[C@@H]1[C@@H]2CC[C@]2(C)C(=O)CC[C@@H]12` [DHEA, 3-beta-hydroxy-5-androsten-17-one, reference compound], for which the “Effect on patients suffering from AIDS” value in data set [3] is given as “positive effect”. In addition, the “Solubility in aqueous solutions” value in data set [4] was “low solubility”. Moreover, the “Survival of infected mice” value in data set [5] is “enables the survival of mice infected by the human viruses Edwards CVB4 or HSV2 to be increased”. In data set [2], the “Optical densities +/- SD, anti-lysozyme IgG, 1/180 serial dilution” value is listed as 0,26 ± 0,04; the “Optical densities +/- SD, anti-lysozyme IgG, 1/540 serial dilution” value is given as 0,14 ± 0,02; the “Optical densities +/- SD, anti-lysozyme IgG, first serial dilution” value is on record as 0,40 ± 0,06; the “Effect on serum concentrations of anti-lysozyme IgG (in words)” value was “increase the serum concentrations of anti-lysozyme IgG”.
Consider `C[C@]12CC[C@H](O)CC1=C[C@@H](O)[C@@H]1[C@@H]2CC[C@]2(C)C(=O)CC[C@@H]12` [7-hydroxy-DHEA, 3-beta, 7-alpha-dihydroxy-androst-5-en-17-one], for which the “Existence of specific cytosolic or nuclear receptors” value in data set [6] is reported as “do not exist”. The “Displacement of tritiated dexamethazone from nuclear binding / anti-glucocorticoid action (in words)” value in data set [7] (100-fold excess of steroid) is recorded as “more effective that the 7-beta epimer”. Besides, in data set [7] (brain cells, 100-fold excess of steroid, no competitor = zero, unlabelled dexamethazone = 100, mean of triplicate), the “Displacement coefficient for nuclear binding of tritiated dexamethazone, Brain” value came to 49. Besides, in data set [7] (liver cells, 100-fold excess of steroid over 2-80 nM 3H-dexamethazone, no competitor = zero, unlabelled dexamethazone = 100, mean of triplicate, 60 min), the “Displacement coefficient for nuclear binding of tritiated dexamethazone, Liver” value worked out at 95. Moreover, in data set [7] (spleen cells, 100-fold excess of steroid, no competitor = zero, unlabelled dexamethazone = 100, mean of triplicate), the “Displacement coefficient for nuclear binding of tritiated dexamethazone, Spleen” value is listed as 91. In addition, the “Displacement coefficient for nuclear binding of tritiated dexamethazone, Thymus” value in data set [7] (thymus cells, 100-fold excess of steroid, no competitor = zero, unlabelled dexamethazone = 100, mean of triplicate) is 85. In addition, in data set [2], the “Optical densities +/- SD, anti-lysozyme IgG, 1/180 serial dilution” value is recorded as 0,74 ± 0,21; the “Optical densities +/- SD, anti-lysozyme IgG, 1/540 serial dilution” value is on record as 0,43 ± 0,12; the “Optical densities +/- SD, anti-lysozyme IgG, first serial dilution” value is listed as 1,21 ± 0,37. Moreover, the “Effect on serum anti-lysozyme IgG (in words)” value in data set [2] (listed as 7-alpha-OH-DHEA) is recorded as “particularly marked effect of the low doses”. Further, the “Effect on serum anti-lysozyme IgG (in words)” value in data set [2] (listed as 7-alpha-hydroxy-DHEA) was “much more active than its 7-beta epimer”.
